Data on three compounds can be found in paper PMC4854315, “Discovery of a novel allosteric inhibitor-binding site in ERK5: comparison with the canonical kinase hinge ATP-binding site” (Acta Crystallographica. Section D, Structural Biology, 2016).

Test in all cases: Z'-LYTE kinase panel
What all share (type): biochemical

For one experiment, the target named is T1, DAPK3 (ZIPK) (Homo sapiens, UniProt O43293).
T1 construct: purchased ThermoFisher (SelectScreen, Z'-LYTE)
A digest of the protocol: (§1)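 Percent inhibition measured at 10 µM compound using the standard Z′-LYTE protocol, as part of a 225-kinase standard panel screen.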

A further experiment has as its target T2, PRKD2 (PKD2) (Homo sapiens, UniProt Q9BZL6).
T2 construct: purchased ThermoFisher (SelectScreen, Z'-LYTE)
T2 sequence (Q9BZL6 1-878): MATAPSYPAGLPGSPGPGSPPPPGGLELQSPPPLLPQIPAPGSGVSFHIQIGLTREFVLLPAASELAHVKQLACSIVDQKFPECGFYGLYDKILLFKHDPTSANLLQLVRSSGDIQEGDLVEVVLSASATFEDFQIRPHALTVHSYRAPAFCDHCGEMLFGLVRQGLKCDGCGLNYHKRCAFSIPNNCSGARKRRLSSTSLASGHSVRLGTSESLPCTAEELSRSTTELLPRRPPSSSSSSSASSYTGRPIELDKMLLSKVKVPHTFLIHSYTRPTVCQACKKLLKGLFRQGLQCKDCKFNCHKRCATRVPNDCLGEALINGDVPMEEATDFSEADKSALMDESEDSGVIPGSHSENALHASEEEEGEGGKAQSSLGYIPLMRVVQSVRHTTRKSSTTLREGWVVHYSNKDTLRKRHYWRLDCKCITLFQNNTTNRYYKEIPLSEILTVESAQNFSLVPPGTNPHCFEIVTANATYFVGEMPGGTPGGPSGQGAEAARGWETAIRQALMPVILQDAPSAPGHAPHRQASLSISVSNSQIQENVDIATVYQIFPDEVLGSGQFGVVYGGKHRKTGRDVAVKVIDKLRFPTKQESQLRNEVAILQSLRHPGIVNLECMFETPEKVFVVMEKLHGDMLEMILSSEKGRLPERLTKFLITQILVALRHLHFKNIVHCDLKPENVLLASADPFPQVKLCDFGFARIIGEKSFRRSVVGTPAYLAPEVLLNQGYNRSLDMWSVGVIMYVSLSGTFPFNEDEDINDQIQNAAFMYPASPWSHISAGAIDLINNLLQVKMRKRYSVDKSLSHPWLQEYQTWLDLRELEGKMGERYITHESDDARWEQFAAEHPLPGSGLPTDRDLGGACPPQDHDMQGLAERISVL
Summed up: as §1

The target of the next experiment is T3, ITK (Homo sapiens, UniProt Q08881).
T3 construct: purchased ThermoFisher (SelectScreen, Z'-LYTE)
T3 sequence (Q08881 1-620): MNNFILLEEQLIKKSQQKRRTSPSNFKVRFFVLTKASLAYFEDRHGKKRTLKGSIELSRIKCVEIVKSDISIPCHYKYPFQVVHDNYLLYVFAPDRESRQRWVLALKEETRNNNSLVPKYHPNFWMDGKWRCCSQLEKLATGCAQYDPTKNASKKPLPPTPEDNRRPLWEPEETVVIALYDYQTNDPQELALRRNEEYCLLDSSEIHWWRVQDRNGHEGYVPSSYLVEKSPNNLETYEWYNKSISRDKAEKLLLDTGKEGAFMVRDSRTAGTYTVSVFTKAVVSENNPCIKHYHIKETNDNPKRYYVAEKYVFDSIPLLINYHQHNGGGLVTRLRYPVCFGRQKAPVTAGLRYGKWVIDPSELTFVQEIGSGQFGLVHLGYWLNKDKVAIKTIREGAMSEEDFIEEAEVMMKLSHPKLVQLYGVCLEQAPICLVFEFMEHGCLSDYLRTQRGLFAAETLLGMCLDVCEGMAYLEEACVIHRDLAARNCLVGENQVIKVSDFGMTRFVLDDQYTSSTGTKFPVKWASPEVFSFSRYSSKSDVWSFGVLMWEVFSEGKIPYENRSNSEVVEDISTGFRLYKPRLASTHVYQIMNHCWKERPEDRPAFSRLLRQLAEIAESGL
Summed up:
as §1

In a further experiment the target is T4, BMX (Homo sapiens, UniProt P51813).
T4 construct: purchased ThermoFisher (SelectScreen, Z'-LYTE)
T4 sequence (P51813 1-675): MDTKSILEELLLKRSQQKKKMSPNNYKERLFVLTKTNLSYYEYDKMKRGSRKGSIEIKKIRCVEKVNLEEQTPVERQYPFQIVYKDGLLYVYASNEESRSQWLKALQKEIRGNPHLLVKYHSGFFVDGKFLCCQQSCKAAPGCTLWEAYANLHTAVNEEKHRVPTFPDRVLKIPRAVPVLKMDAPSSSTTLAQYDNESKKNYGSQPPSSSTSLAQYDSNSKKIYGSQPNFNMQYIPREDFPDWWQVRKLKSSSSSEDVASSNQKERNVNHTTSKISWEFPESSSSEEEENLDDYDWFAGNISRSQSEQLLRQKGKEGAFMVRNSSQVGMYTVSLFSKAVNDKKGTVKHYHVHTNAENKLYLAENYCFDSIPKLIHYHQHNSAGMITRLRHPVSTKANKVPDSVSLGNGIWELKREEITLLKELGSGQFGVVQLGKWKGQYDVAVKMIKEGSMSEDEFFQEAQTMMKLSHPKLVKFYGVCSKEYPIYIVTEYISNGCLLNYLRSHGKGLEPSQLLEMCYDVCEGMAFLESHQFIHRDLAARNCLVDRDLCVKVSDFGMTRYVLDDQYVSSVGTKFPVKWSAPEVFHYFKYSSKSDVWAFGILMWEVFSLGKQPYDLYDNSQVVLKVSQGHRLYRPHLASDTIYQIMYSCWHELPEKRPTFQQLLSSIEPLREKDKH
Summed up:
as §1

The target in another experiment is T5, AKT2 (PKB beta) (Homo sapiens, UniProt P31751).
T5 construct: purchased ThermoFisher (SelectScreen, Z'-LYTE)
T5 sequence (P31751 whole entry): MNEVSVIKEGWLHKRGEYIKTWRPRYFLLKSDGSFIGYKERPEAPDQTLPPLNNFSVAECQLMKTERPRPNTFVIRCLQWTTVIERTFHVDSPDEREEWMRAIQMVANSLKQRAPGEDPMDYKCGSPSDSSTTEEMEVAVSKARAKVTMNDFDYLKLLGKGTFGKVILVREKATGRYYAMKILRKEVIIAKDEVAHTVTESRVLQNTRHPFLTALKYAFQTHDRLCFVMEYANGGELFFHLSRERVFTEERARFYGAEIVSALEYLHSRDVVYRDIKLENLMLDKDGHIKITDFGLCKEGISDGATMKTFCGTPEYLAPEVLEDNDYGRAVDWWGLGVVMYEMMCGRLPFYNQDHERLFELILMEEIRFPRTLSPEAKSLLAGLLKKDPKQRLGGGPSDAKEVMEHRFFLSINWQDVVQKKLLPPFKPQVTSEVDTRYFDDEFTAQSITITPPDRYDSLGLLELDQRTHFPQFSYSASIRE
Summed up: as §1

For the next experiment, the target named is T6, HIPK4 (Homo sapiens, UniProt Q8NE63).
T6 construct: purchased ThermoFisher (SelectScreen, Z'-LYTE)
T6 sequence (Q8NE63 1-616): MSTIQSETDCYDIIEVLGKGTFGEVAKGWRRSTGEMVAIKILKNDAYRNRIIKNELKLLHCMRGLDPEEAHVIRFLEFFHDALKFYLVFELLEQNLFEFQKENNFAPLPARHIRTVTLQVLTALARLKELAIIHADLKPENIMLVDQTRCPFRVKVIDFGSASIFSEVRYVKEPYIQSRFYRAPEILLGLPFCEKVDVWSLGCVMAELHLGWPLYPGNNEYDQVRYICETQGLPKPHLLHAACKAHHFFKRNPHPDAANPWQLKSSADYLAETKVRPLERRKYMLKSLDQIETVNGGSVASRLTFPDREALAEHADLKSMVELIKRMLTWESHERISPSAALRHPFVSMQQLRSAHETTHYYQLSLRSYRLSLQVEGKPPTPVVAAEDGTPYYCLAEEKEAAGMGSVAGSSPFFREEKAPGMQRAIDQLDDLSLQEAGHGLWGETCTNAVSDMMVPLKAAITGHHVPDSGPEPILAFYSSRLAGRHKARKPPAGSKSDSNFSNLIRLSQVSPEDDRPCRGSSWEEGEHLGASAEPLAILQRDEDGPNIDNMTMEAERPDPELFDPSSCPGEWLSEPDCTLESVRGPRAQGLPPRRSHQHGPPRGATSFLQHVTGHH
A digest of the protocol: as §1

T1 sequence (O43293 whole entry): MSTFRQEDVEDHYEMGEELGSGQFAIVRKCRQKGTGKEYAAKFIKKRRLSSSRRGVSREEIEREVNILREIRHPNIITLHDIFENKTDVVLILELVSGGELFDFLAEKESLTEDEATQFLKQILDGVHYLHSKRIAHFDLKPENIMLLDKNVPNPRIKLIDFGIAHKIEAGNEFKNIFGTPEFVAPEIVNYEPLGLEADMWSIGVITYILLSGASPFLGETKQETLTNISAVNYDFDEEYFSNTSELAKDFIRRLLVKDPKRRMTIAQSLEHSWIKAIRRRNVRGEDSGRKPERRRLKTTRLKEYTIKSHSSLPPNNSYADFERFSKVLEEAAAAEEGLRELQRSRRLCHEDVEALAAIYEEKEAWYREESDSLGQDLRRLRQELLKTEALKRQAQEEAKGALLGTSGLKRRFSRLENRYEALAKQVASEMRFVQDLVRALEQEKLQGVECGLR

With `Cc1ncc(-c2nc(Nc3ccc(C(=O)NCCN4CCCCC4)cc3)ncc2F)n1C(C)C` [Compound 3], the inhibition (commonly the change of the read-out against control, counted positive when it falls) at 10 µM at DAPK3 (ZIPK) was found to be 78%; on PRKD2 (PKD2), 95%; at ITK, 88%; at BMX, 68%; on AKT2 (PKB beta) it was 7%; against HIPK4, 92%.

`Cc1cc(Nc2nc(N)nn2C(=O)NC(C)C)ccc1Cl` [Compound 5]: the inhibition at 10 µM on DAPK3 (ZIPK) was -7.41%; against PRKD2 (PKD2) it was 9%; on ITK, 10%; at BMX it was 19%; at AKT2 (PKB beta) it was -0.29%; on HIPK4 it was 19%.

On to “XMD8-92 [Compound 2, reference compound]”, for which the “DAPK3 (ZIPK) % Inhibition” value on DAPK3 (ZIPK) (10 µM compound, ATP Km app) is reported as -0.894%. Also, the “PRKD2 (PKD2) % Inhibition” value at PRKD2 (PKD2) (10 µM compound, ATP Km app) was 21%. The “ITK % Inhibition” value at ITK (10 µM compound, ATP Km app) turned out to be 18%. For the same compound, the “BMX % Inhibition” value at BMX (10 µM compound, ATP Km app) is given as 41%. Moreover, the “AKT2 (PKB beta) % Inhibition” value on AKT2 (PKB beta) (10 µM compound, ATP Km app) worked out at 98%. For the same compound, the “HIPK4 % Inhibition” value on HIPK4 (10 µM compound, ATP Km app) is recorded as 10%.
